One data set deals with flint corn (ZEAMI). As to the kind of experiment: Test 11 field trial, preemergence. In kind it is in vivo, Zea mays L. ssp. indurata. Also on record: scale not given here. As to conditions: atrazine 1500 or metolachlor 2500 g a.i./ha alone. An excerpt:
Corn seeds (hybrid ‘Pioneer 3041’) were planted in mid spring season, 5 cm deep in a clay soil having 2.6% organic matter and a pH of 5.6. Plots were 8 m long by 1.5 m wide with rows spaced 80 cm apart. Seeds were spaced 15 cm apart within the rows. The field was managed using conventional tillage practices. […] Treatments consisted of Compound 2 or
Goosegrass was not evaluated 16 or 91 days after application.

In a further data set the test system is field pennycress (THLAR). The experiment in a line: Test 4 field trial, postemergence. In kind it is in vivo, Thlaspi arvense. Also on record: scale not given here. Here is the method:
A field trial was conducted to evaluate the effects of mixtures of Compound 2 with commercial herbicides on spring wheat (TRZAS, Triticum aestivum L.) and several weed species. Wheat seeds (cv. ‘AC Intrepid’) were planted in late spring season, 3.8 cm deep in a loam soil having 2.7% organic matter and a pH of 7. Plots were 6 m long by 2.5 m wide. The field was managed using no-till practices. The plots were arranged in a randomized complete block design with each treatment being replicated four times. Treatments were applied postemergence 25 days after planting using a backpack sprayer delivering a spray volume of 55 L/ha using a pressure of 276 kPa. […] Compound 2 and clodinafop treatments, alone and in combination, also included a surfactant. Weed species present in the experimental plots in sufficient quantity to be evaluated included wild oat (AVEFA, Avena fatua L.), common lambsquarters (CHEAL, Chenopodium album L.), kochia (KCHSC, Kochia scoparia (L.) Schrad.), wild buckwheat (POLCO, Polygonum convolvulus L.), Russian thistle (SASKR, Salsola kali L. ssp. ruthenica (Iljin) Soo), and field pennycress (THLAR, Thlaspi arvense L.). […] Common lambsquarters was evaluated only at 14 days after application. […] Results are the means of the four replicates.

Data set [1] relates to common lambsquarters (CHEAL). The experiment in a line: Test 24 growth chamber, postemergence. As to conditions: 17 DAA. The data set is classed as in vivo, Chenopodium album. Here is the method:
(§1) Plants were treated postemergence at the 2-4 leaf growth stage, and each treatment was replicated three times. […] Plants were watered as needed. […] Results for barley and wheat are the means across varieties of the three replicates, and results for the weeds are the means of the three replicates.

The subject of a further data set is common chickweed (STEME). As to the kind of experiment: Test 24 growth chamber, postemergence. In kind it is in vivo, Stellaria media. The settings on record: 17 DAA. Here is the method:
as §1

Data set [2] concerns giant foxtail (SETFA). As to the kind of experiment: Test 25 field trial, postemergence, growth as percent of control. The data set is classed as in vivo, Setaria faberi. The text has this: Corn seeds (hybrid ‘Pioneer 31G96 RR’) were planted in mid spring season, 3.8 cm deep in a clay loam soil having 2% organic matter and a pH of 6.6. Plots were 6.1 m long by 3.0 m wide with rows spaced 76 cm apart. Seeds were spaced 15 cm apart within the rows. The field was managed using conventional tillage practices. […] Giant ragweed and Pennsylvania smartweed could only be evaluated 14 days after application. […] Results are the means of the three replicates. This growth inhibition data was converted to results in the form of “plant growth as a percent of control plant growth” using the calculation “100 minus growth inhibition”.
When this form of Colby's Equation is used, if the observed effects on weeds are less than the expected values, the mixture is synergistic.

For a further data set, the system named is giant ragweed (AMBTR). As to the kind of experiment: Test 26 field trial, postemergence. The data set is classed as in vivo, Ambrosia trifida. The text has this: (§2) Corn seeds (hybrid ‘Pioneer 31G96’) were planted in mid spring season, 3.8 cm deep in a silt loam soil having 2% organic matter and a pH of 6.6. Plots were 6.1 m long by 3.0 m wide with rows spaced 76 cm apart. Seeds were spaced 15 cm apart within the rows. The field was managed using conventional tillage practices. […] All treatments also included a surfactant. […] Some of the weed species could not be evaluated at every timing. […] Results are the means of the three replicates.

Data set [3] deals with giant foxtail (SETFA). As to the kind of experiment: Test 26 field trial, postemergence. The data set is classed as in vivo, Setaria faberi. Further details: scale not given here.
Source text: as §2

In data set [4] the test system is ivyleaf morningglory (IPOHE). The experiment in a line: Test 28 greenhouse, postemergence. The data set is classed as in vivo, Ipomoea hederacea. The settings on record: 26 DAA. As to the method: (§3) A greenhouse test was conducted to evaluate the effects on the plant species corn (ZEAMD, Zea mays ssp. indentata), sorghum (SORVU, Sorghum vulgare L.), dry-seeded rice (ORYSA, Oryza sativa L.), wheat (TRZAW, Triticum aestivum L.), ivyleaf morningglory (IPOHE, Ipomoea hederacea (L.) JACQ.), and barnyardgrass (ECHCG, Echinochloa crus-galli (L.) P. BEAUV.), of mixtures of Compound 2 with isoxadifen-ethyl. Corn, sorghum, rice, wheat, ivyleaf morningglory and barnyardgrass seeds were planted in RediEarth, a commercial potting medium. […] Corn plants were treated postemergence at the V2 growth stage, and sorghum, rice, wheat, ivyleaf morningglory, and barnyardgrass plants were treated postemergence at the 3-leaf stage. […] Each treatment was replicated three times. […] Plants were watered as needed.

A further data set relates to barnyardgrass (ECHCG). As to the kind of experiment: Test 28 greenhouse, postemergence. The settings on record: 26 DAA. The data set is classed as in vivo, Echinochloa crus-galli. Here is the method: as §3

Take `CCNc1nc(Cl)nc(NC(C)C)n1` [Atrazine, atrazine, reference compound]: the “ZEAMI Obs” value in the data set on flint corn (ZEAMI) (16 DAA), in the data set with flint corn (ZEAMI) (30 DAA), in the data set with flint corn (ZEAMI) (44 DAA), with flint corn (ZEAMI) (62 DAA) and in the data set on flint corn (ZEAMI) (91 DAA) was 0 each time.

Take `COC(=O)c1nc(C2CC2)nc(N)c1Cl` [Compound 2, methyl 6-amino-5-chloro-2-cyclopropyl-4-pyrimidinecarboxylate]: the “THLAR Obs” value with field pennycress (THLAR) (14 DAA, Cpd 2 30 g a.i./ha alone or with fenoxaprop 90) stood at 0; in the data set with field pennycress (THLAR) (14 DAA, Cpd 2 60 g a.i./ha alone or with clodinafop 56 or fenoxaprop 90) it was 0; in the data set on field pennycress (THLAR) (35 DAA, Cpd 2 30 g a.i./ha alone or with clodinafop 56 or fenoxaprop 90) it was 0; in the data set with field pennycress (THLAR) (35 DAA, Cpd 2 60 g a.i./ha alone or with fenoxaprop 90), 8. Further, the “CHEAL Obs (scale 0 to 100)” value in data set [1] (Cpd 2 4 g a.i./ha) came out at 45; in [1] (Cpd 2 8 g a.i./ha), 60; in [1] (Cpd 2 16 g a.i./ha), 73. The “STEME Obs (scale 0 to 100)” value in the data set with common chickweed (STEME) (Cpd 2 4 g a.i./ha) is recorded as 47; in the data set on common chickweed (STEME) (Cpd 2 8 g a.i./ha), 63; with common chickweed (STEME) (Cpd 2 16 g a.i./ha), 67. Moreover, the “SETFA Obs (percent of control)” value in the data set with giant foxtail (SETFA) [2] (Cpd 2 15 g a.i./ha, 14 DAA) is listed as 93%; in the data set with giant foxtail (SETFA) [2] (Cpd 2 15 g a.i./ha, 28 DAA) it was 98%; with giant foxtail (SETFA) [2] (Cpd 2 15 g a.i./ha, 56 DAA), 100%; in the data set with giant foxtail (SETFA) [2] (Cpd 2 30 g a.i./ha, 14 DAA), 85%; in the data set with giant foxtail (SETFA) [2] (Cpd 2 30 g a.i./ha, 28 DAA), 88%; in the data set on giant foxtail (SETFA) [2] (Cpd 2 30 g a.i./ha, 56 DAA), 80%. The “SETFA Obs (percent of control)” value was 73% in the data set on giant foxtail (SETFA) [2] (Cpd 2 45 g a.i./ha, 14 DAA); 80% in the data set on giant foxtail (SETFA) [2] (Cpd 2 45 g a.i./ha, 28 DAA); 83% with giant foxtail (SETFA) [2] (Cpd 2 45 g a.i./ha, 56 DAA). Also, the “AMBTR Obs” value with giant ragweed (AMBTR) (14 DAA, 30 g a.i./ha) came out at 97; with giant ragweed (AMBTR) (28 DAA, 30 g a.i./ha), 100; in the data set with giant ragweed (AMBTR) (28 DAA, 45 g a.i./ha), 100; in the data set on giant ragweed (AMBTR) (28 DAA, 60 g a.i./ha) it was 100. Besides, the “SETFA Obs” value is listed as 98 with giant foxtail (SETFA) [3] (28 DAA, 30 g a.i./ha); 97 in the data set with giant foxtail (SETFA) [3] (28 DAA, 45 g a.i./ha); 99 in the data set with giant foxtail (SETFA) [3] (28 DAA, 60 g a.i./ha); 50 with giant foxtail (SETFA) [3] (56 DAA, 30 g a.i./ha); 73 in the data set with giant foxtail (SETFA) [3] (56 DAA, 45 g a.i./ha); 70 in the data set with giant foxtail (SETFA) [3] (56 DAA, 60 g a.i./ha). In addition, the “IPOHE Obs” value in data set [4] (Cpd 2 32 g a.i./ha) and in data set [4] (Cpd 2 64 g a.i./ha) was 100 each time. For the same compound, the results for the “ECHCG Obs” value in the data set on barnyardgrass (ECHCG) (Cpd 2 32 g a.i./ha) and with barnyardgrass (ECHCG) (Cpd 2 64 g a.i./ha) were 83 and 87, respectively.

Values taken from US20100285959A1, “HERBICIDAL MIXTURES” (priority 2006, published 2010).
